# Results from a melting point compilation (Tetko et al.; mined from patent text by program, amines drawn as free bases though some values may be those of a salt).
row,Structure (SMILES),melting point
1,CC1=NN=C(c2ccc([N+](=O)[O-])cc2)c2cc(Br)ccc2C1,200 to 205 °C
2,C#Cc1ccc(C2SCC(C(C)(C)C)CS2)cc1 (configuration not stated),149 °C
3,CCCNC(=O)Nc1ccc(N2CCOCC2)cc1C(=O)NCC1CCN(C(c2ccccc2)c2ccccc2)CC1,215 to 217 °C
4,ClC(Cl)(Cl)C1Oc2ccc(C=NNc3ccccc3)cc2C(C(Cl)(Cl)Cl)O1 (configuration not stated),191 to 192 °C
5,CNC(=O)n1nc(Oc2c(Cl)cc(C(F)(F)F)cc2[N+](=O)[O-])cc1C,140 to 142 °C
6,CNC(=O)[C@@H]1C[C@H](SCc2ccc(OC)cc2)CN1CCO,88 to 89.5 °C
7,N#Cc1cccnc1CC1C(=O)C2(COc3cc4c(cc32)OCCO4)c2ccccc21 (configuration not stated),230 to 233 °C
8,NC(=O)N(O)Cc1ccc(-c2ccccn2)s1,168 °C
9,NC(=O)Cc1cccc(-c2csc(N=C(N)N)n2)n1,254 °C
10,CC(=O)Nc1cccc(-c2ccc3nc(-c4cccnc4N)n(-c4ccc(CNS(=O)(=O)c5ccccc5)cc4)c3n2)c1,180 to 182 °C
11,CCCOc1cc(-c2c(C(=O)OCC)c(CCl)nc3cc(OC)c(OC)cc23)ccc1OC,126 to 128 °C
12,COc1cc2cc(C(=O)N3CC(CCl)c4c3cc(NC(=O)C(C)(C)c3ccccc3[N+](=O)[O-])c3ccccc43)[nH]c2c(OC)c1OC (configuration not stated),139 to 143 °C
13,Cc1c(N2CC(F)C(C3(N)CCC3)C2)c(F)c(N)c2c(=O)c(C(=O)O)cn(C3CC3F)c12 (configuration not stated),177 to 184 °C
14,Cc1cc(OC(F)(F)C(F)Cl)ccc1NC(=O)CCCC=C(F)F (configuration not stated),59 to 60 °C
15,N#Cc1c(N2CCc3ccccc3CC2)nc(NCC(F)(F)F)n(CC(F)(F)F)c1=O,> 200 °C
16,O=C1NC(=O)c2cc(NC3CCCCC3)c(NC3CCCCC3)cc21,170 to 175 °C
17,COC(=O)C1=C(O)c2sc3ccccc3c2S(=O)(=O)N1,240 to 242 °C
18,COc1ccc(C(=O)Nc2ccccc2)cc1NCc1cccc(F)c1F,134 to 135 °C
19,COCOc1ccccc1-c1cc(-c2cc([N+](=O)[O-])ccc2Cl)c(C#N)c(NC(=O)c2cccs2)n1,208 to 209 °C
20,O=C1CCN(C2(OCCOc3ccccc3)OCCO2)CC1,105 to 106 °C
21,CC(=O)NC1C(NC(=NC(=O)OC(C)(C)C)NC(=O)OC(C)(C)C)C=C(C(=O)OCCCO)OC1C(O)C1COC(C)(C)O1 (configuration not stated),86 to 88 °C
22,Nc1nc(NC2CCC2)c2ncn(C3C=CC(CO)C3)c2n1 (configuration not stated),181 to 183 °C

row,Structure (SMILES),melting point
1,c1ccc2c(c1)ncc1ncsc12,114 to 116 °C
2,CCCCCCCCCCN1C(=O)OC2(CCNCC2)C1(C)O (configuration not stated),139 to 140 °C
3,O=c1nc(-c2cccc(CCOP(=O)(O)O)n2)sc2ccccc12,235 to 237 °C
4,Cc1cc(C)nc(NC(=O)NS(=O)(=O)c2c([N+](=O)[O-])ccc3c2CCC3)n1,172 °C
5,COc1ccc(C(=O)c2ccc3cc(OC)ccc3c2)c(ON=C(C)C)c1,117 to 118 °C
6,CCOC(=O)c1c(C(F)(F)F)nc(C(F)(F)F)c(C(=O)O)c1OCC,115 to 117 °C
7,COc1ccc(Cc2ccc3[nH]c(=S)[nH]c3c2)c(O)c1,248 to 250 °C
8,O=C1N=c2ccc(OCCN3CC=C(Cc4ccccc4)CC3)cc2=N1,202 to 203 °C
9,O=C(NCC(O)c1cccc(OCc2ccc3ccccc3n2)c1)c1ccccn1 (configuration not stated),126 to 129 °C
10,CN(C)c1ccc(-c2ccc(C(=O)Nc3cccc(CC(=O)O)c3)o2)cc1,187 to 190 °C
11,N#CC1CC2CCC(C1)N2Cc1ccccc1 (configuration not stated),119 to 120 °C
12,CC(C)(C)N(Cc1ccccc1)NC(=O)c1ccco1,152 °C
13,Cc1ccc2c(c1)C=Cc1cc(C)ccc1C2c1cn(-c2cc(NCC(=O)Nc3nc(CC(=O)O)cs3)nc(N(C)C)n2)c(=O)[nH]c1=O,220 °C
14,COc1ccc(CN2CCC(c3cn(Cc4ccc(Cl)s4)c4cc(F)ccc34)CC2)cc1C(=O)O,232 to 236 °C
15,CC(=O)N1CCC(C(=O)Nc2ccc(-n3nc(C(F)(F)F)cc3C(F)(F)F)cc2)CC1,94 to 95 °C
16,COC(=O)C#CC(=O)c1ccccc1,31 to 35 °C
17,O=Cc1[nH]cc2c1OCCO2,147 °C
18,C#CCN(c1ccc(C(=O)NC(CCC(=O)NC(CCC(=O)O)C(=O)O)C(=O)O)cc1)C1CCc2cc3nc(CO)[nH]c(=O)c3cc21 (configuration not stated),172 °C
19,CC(=O)N(C)Cc1ccc(F)cc1,48 to 54 °C
20,Cc1nc(-c2ccc(NCC(=O)O)cc2)no1,178 to 181 °C
21,Cn1c(COc2ccc(CC3SC(=O)NC3=O)cc2)nc2ccc(Oc3cccc(NC(=O)Nc4ccc(C(F)(F)F)cc4)c3)cc21 (configuration not stated),192 to 194 °C
22,O=C(O)c1ccc2ccc(C(F)(F)F)nc2c1O,209 to 211 °C

row,Structure (SMILES),melting point
1,Cc1ccccc1C=C1CCc2c1nc1ccc(C(=O)O)cn1c2=O,300 to 302 °C
2,CCOC(=O)Nc1c(C#N)c(C(F)(F)F)nn1-c1c(Cl)cc(C(F)(F)F)cc1Cl,177 to 179 °C
3,COc1cc(OC)c2c3c(n(Cc4ccccc4)c2c1)CCCC3C(N)=O (configuration not stated),190 to 192 °C
4,COc1ccc(C=CCN2CCc3nc(N)sc3CC2)cc1OC,122 to 126 °C
5,CCc1coc2c(-c3ccc(F)cc3)c(-c3ccc(S(N)(=O)=O)cc3)nn12,234 to 236 °C
6,CCOCCC(=O)C=P(c1ccccc1)(c1ccccc1)c1ccccc1,63 to 65 °C
7,O=C(C=Cc1ccc2c(c1)OCO2)N1CCc2c([nH]c3ccccc23)C1c1ccc2c(c1)OCO2 (configuration not stated),233 °C
8,O=C(Oc1ccc(Cl)cc1)c1ncn2c1[C@@H]1CCCN1C(=O)c1c(Cl)cccc1-2,241 to 242 °C
9,CC(S(N)(=O)=O)S(=O)(=O)N1CCCC1 (configuration not stated),78 to 80 °C
10,N#Cc1nn(-c2c(Cl)cc(C(F)(F)F)cc2Cl)c(N)c1-c1cccc(N)c1,187 °C
11,COC(=O)c1ccc(C=CC(=O)C=Cc2ccc(C(=O)OC)cc2)cc1,206 to 210 °C
12,O=c1[nH][nH]c(=O)n1CCCl,192 to 193 °C
13,O=c1c(O)c(C#Cc2ccccc2)oc2ccccc12,153 to 154 °C
14,NC(=O)c1cccnc1N1CCN(CC(O)CO)CC1 (configuration not stated),140 to 142 °C
15,NS(=O)(=O)c1ccc(-c2cccc(-c3nc(-c4ccc(Cl)s4)cc(C(F)(F)F)n3)c2)s1,233 °C
16,COc1ccc(C(=O)Nc2ccc3ccc(Oc4ccccc4)nc3n2)nn1,95 °C
17,Cc1coc2c1C(=O)CC(c1cccc(Cl)c1Cl)C2 (configuration not stated),116 to 117 °C
18,COc1cc(C#N)ccc1-c1nc2cc(Cl)c(Cl)cc2[nH]1,> 250 °C
19,O=C(Nc1ccc2ccc(Cl)nc2n1)C1=CCC=CC1,210 °C
20,Cn1c(C(=O)N[C@H]2CCCC[C@H]2C(=O)N[C@H](C#N)C2CC2)cc2ccccc21,242 to 246 °C

# The next lines start with the values.
row,melting point,Structure (SMILES)
1,193 to 195 °C,O=C(O)CON=C1CCCc2cc(OCCn3ccnc3)ccc21
2,174 to 175 °C,Cc1c(C(=O)O)ccc(Cl)c1Cl
3,68 to 71 °C,COc1ccc(N2C(=O)C(=C3CCCN3C)c3ccccc32)cc1F
4,158 °C,O=C(c1ccc(Cl)c(Cl)c1)N1C(=O)N2CCCC2(Cc2ccc(Br)cc2)C1=O (configuration not stated)
5,176 to 178 °C,CCOC(=O)C1=C(C)NC(=O)N(C(=O)OCC)C1c1cccc([N+](=O)[O-])c1Cl (configuration not stated)
6,145 °C,COc1ccccc1-n1c(-c2ccc(N(C)C)cc2)nnc1C(C)O (configuration not stated)
7,120 to 122 °C,CCCc1ccc2nc(N)sc2c1
8,258 to 260 °C,CCS(=O)(=O)c1cc2c(cc1OC)CCn1c3c(c(-c4cncs4)c1-2)CCCCN(C(C)(C)C)C3=O
9,99 to 101 °C,CC(C)N(CCN1C(=O)C(=O)c2cc(Cl)ccc21)C(C)C
10,170 to 172 °C,CCn1cc(C2(c3cccc(-c4cccnc4F)c3)N=C(N)N(C)C2=O)cc1CO (configuration not stated)
11,112 to 114 °C,CCOC(=O)c1oc2ccc(Cl)cc2c1CBr
12,117 to 118 °C,CC(C)(C)OC(=O)N1C(COc2noc3ccc(Cl)cc23)COC1(C)C (configuration not stated)
13,155 to 157 °C,COc1ccc(COc2cncc3c2C(=O)c2c(F)ccc(Cl)c2C3=O)cc1
14,242 to 247 °C,CCN(CC)C(=O)Cc1c(-c2ccc(O)cc2)nn2c(C)cc(C)nc12
15,165 to 168 °C,CCOC(=O)[C@H](CCc1ccccc1)N[C@@H](C)C(=O)N1N=C(C(C)(C)C)S[C@H]1C(=O)O
16,155 to 157 °C,Cc1ccccc1C1CC(=O)CC(c2ccccc2C)N1C (configuration not stated)
17,216 to 218 °C,Cn1ccc(-c2nnc(Cc3ccc(F)cc3)o2)c(O)c1=O

row,melting point,Structure (SMILES)
1,161 to 163 °C,Cc1ccc(C(N)=O)cc1F
2,205 °C,Cc1ccc(F)c(C(C)Oc2ccc3nc(-c4ccccc4OC(N)=O)sc3c2)c1Cl (configuration not stated)
3,193 to 194 °C,CS(=O)(=O)CCNC(=O)c1cccc(-c2ccc3c(c2)C(c2ccc(Cl)cc2Cl)CC3)c1 (configuration not stated)
4,112 °C,CCCC(=O)c1cnc2c(OCC)nccc2c1Nc1ccccc1C
5,243 to 247 °C,Cc1cccc(Cl)c1C(=O)N[C@@H](Cc1ccc(-c2c(C(F)(F)F)n(C)c(=O)n(C)c2=O)cc1)C(=O)O
6,214 to 217 °C,Cc1cc2c(-c3ccccc3F)c(C(=O)O)oc(=O)c2cc1C
7,112 to 115 °C,CCCCCN1C(=O)CC(c2ccc(C(F)(F)F)cc2)C(C(=O)OCC)C1=O (configuration not stated)
8,154 to 156 °C,CCC1(CCCCN2CCN(c3ccccn3)CC2)C(=O)Nc2ccc(Cl)cc21 (configuration not stated)
9,168 to 170 °C,CC(CN(C)C)Nc1ccnc2cc(Cl)ccc12 (racemic)
10,73 to 75 °C,CCn1c(-c2ccc(Cl)cc2)nn(C)c1=O
11,206 to 208 °C,O=C1CCC(N2Cc3c(OCc4ccc(CN5CCOCC5)cc4)cccc3C2=O)C(=O)N1 (configuration not stated)
12,131 to 132 °C,CN1C(=O)c2ccc(-c3ccc(Cl)cc3)cc2C1=O
13,85 to 87 °C,O=[N+]([O-])c1ccc2ccn(CCCCl)c2c1
14,176 to 178 °C,O=C1C(=Cc2ccc(Br)cc2)CCc2cc(OCCc3c[nH]cn3)ccc21
15,190 to 192 °C,Cc1nn(C)c(Oc2ccc([N+](=O)[O-])cc2[N+](=O)[O-])c1C(=O)c1ccc(Cl)cc1Cl
16,226 °C,O=C1CCCc2c1[nH]c1ccc(Cl)cc21
